# Assay results published in patent publication US8703705B2, “Modified factor VIII peptides” (Apitope International NV, priority 2009, dated 2014).
# No end group written: not given here.
# How the values were obtained:
# LNC from FVIII-DR2+ mice = assay: Recall responses of lymph node cells from FVIII-DR2+ mice primed with rhFVIII/CFA; type: cell-based, mouse; conditions: FVIII-DR2+ animals immunised with factor VIII in adjuvant; FIG. 3
# Source text: HLA-DR2 transgenic mice were crossed with factor VIII deficient mice to create a model of haemophilia expressing the human HLA class II MHC molecule.
# These FVIII-DR2+ animals were immunised with factor VIII in adjuvant. Draining lymph nodes were isolated and tested for their response to the peptide panel.
# The same method was followed as for (i), except the mice were FVIII-deficient, HLA-DR2+ and murine MHC class II null.
# [1] = test system: FVIII+DR2+ T cell hybridoma clones; assay: FVIII peptide specificity of T cell hybridomas generated from DR2+ mice (IL-2 ELISA); type: cell-based, mouse; conditions: for number of hybridomas responding to peptide: of the 27 hybridomas screened, 20 μg/ml peptide, IL-2
# Source text: HLA-DR2 mice were first immunised with factor VIII in adjuvant. Spleen cells from immune mice were restimulated in vitro with factor VIII and the resulting lymphoblasts were fused with the BW5147 thymoma using polyethylene glycol.
# T-cell hybridomas were selected in HAT medium and the hybridomas cloned and tested for their response to factor VIII. The hybridomas were then screened for their response to the 12 predicted peptides.
# HLA-DR2+ murine MHC class II null mice were immunised as above. On day 10 draining lymph nodes were removed and lymphocytes cultured at 2.5×10^6 cells/ml, 1 ml/well in 24 well plates in the presence of 20 μg/ml rhFVIII for 3 days. Following this stimulation, lymphocytes were recovered, washed and fused with TCRα^−β^− BW fusion partner cells at a ratio of 4 BW cells to 1 lymphocyte, using polyethylene glycol as described by Nelson et al (1980) PNAS 77(5):2866. Fused cells were carefully washed and then plated out in flat bottomed 96 well plates for 2 days before the addition of HAT medium to select for T cell hybridomas. Cells were monitored for growth and approximately 10 days after fusions were performed, individual clones were selected and transferred to 24 well plates in HAT medium. Clones were maintained in HAT medium for at least 2 weeks before being weaned into HT medium and then complete medium. Clones were tested for antigenic specificity by culturing 100 μl of hybridoma cells with 5×10^4 Mgar cells in the presence and absence of 20 μg/ml rhFVIII overnight. Supernatants were then collected and assessed for IL-2 production by ELISA, with clones producing IL-2 in response to rhFVIII being considered positive for FVIII-specificity. To investigate the repertoire of predicted FVIII peptides FVIII-specific clones were again tested for IL-2 production, following overnight incubation with 20 μg/ml of each of the 12 peptides.
# [2] = test system: FVIII-DR2+ T cell hybridoma clones; assay: FVIII peptide specificity of T cell hybridomas generated from FVIII-/- HLA-DR2+ mice (IL-2 ELISA); type: cell-based, mouse; conditions: of 19 hybridomas specific for factor VIII; factor VIII deficient HLA-DR2 mice
# Source text: Factor VIII deficient mice expressing HLA-DR2 were immunised with factor VIII in adjuvant. Spleen cells from the immunised mice were restimulated in vitro with factor VIII and the resulting lymphoblasts were fused with BW5147, as described above. T-cell hybridomas were screened for their response to the 12 predicted peptides. Yet again, the majority of hybridomas responded to peptides DNIMV (SEQ ID NO: 11) and PRCLT (SEQ ID NO: 9). Of 19 hybridomas specific for factor VIII, 10 responded to DNIMV (SEQ ID NO: 11), 6 to PRCLT (SEQ ID NO: 9), 1 to PPIIA (SEQ ID NO: 4), 1 to SLYIS (SEQ ID NO: 3) and 1 to DTLLI (SEQ ID NO: 8).
# The same method was followed as for (ii), except the mice were FVIII-deficient and HLA-DR2+.
# HLA-DR2 transgenic mice = assay: Tolerisation of FVIII-specific responses in DR2+ mice by peptide pre-treatment before priming with rhFVIII/CFA; type: in vivo, mouse; conditions: 3 x 100 μg i.p. in PBS prior to priming with rhFVIII/CFA; FIG. 6
# Experimental: HLA-DR2 transgenic mice were treated with either of the two soluble peptides, or PBS as a control, prior to immunisation with factor VIII in adjuvant. Draining lymph nodes were isolated and the cells restimulated in vitro with factor VIII protein in order to assess the immune status of the mice.
# HLA-DR2+ murine MHC class II null mice were treated 3 times with 100 μg of DNIMV (SEQ ID NO: 11), PRCLT (SEQ ID NO: 9) or PPIIA (SEQ ID NO: 4) dissolved in PBS, or the equivalent volume of PBS alone. Peptides were administered intraperitoneally, with 3-4 days between each dose. Following the final administration, mice were primed with rhFVIII emulsified in complete Freunds adjuvant as for (i). 10 days later, draining lymph nodes were recovered and lymphocytes subsequently cultured in vitro with rhFVIII, or each of the tolerising peptides as well as control antigens, for 72 hours before the addition of tritiated thymidine as for (i). (vi) Tolerisation of FVIII-Specific Responses in DR2+Mice by Pre-Treatment with a Combination Immunodominant FVIII Peptides
# [3] = test system: FVIII-/- clones with fresh or fixed Mgar cells; assay: Apitope test: presentation by fresh or paraformaldehyde-fixed Mgar cells to hybridoma clones, IL-2 by ELISA; type: cell-based, mouse; conditions: Mgar cells fresh or fixed with 1% paraformaldehyde, 20 μg/ml, FIG. 5
# Experimental: In order to be an apitope, a peptide must be capable of binding to an MHC class I or II molecule without further antigen processing (i.e. trimming) and be presented to a T cell. In the present case, the capacity of peptides to be presented by fixed APC was investigated.
# Mgar cells were either fresh or fixed with 1% paraformaldehyde. Clones were tested for antigenic specificity by culturing 100 μl of hybridoma cells with 5×10^4 Mgar cells in the presence and absence of 20 μg/ml rhFVIII or peptide epitopes overnight. Supernatants were then collected and assessed for IL-2 production by ELISA.
# Solubility of peptide = type: physicochemical
sequence,measurement,setting,value
"RYLRIHPQSWVHQIA (listed as Homo sapiens) [FVIII 15mer peptide, first AA 2322]",response of draining lymph node cells to peptide,LNC from FVIII-DR2+ mice,significant response
"PRCLTRYYSSFVNME (listed as Homo sapiens) [FVIII 15mer peptide, first AA 545]",number of hybridomas responding to peptide,[1],3
same,number of hybridomas responding to peptide,[2],6
same,suppression of the immune response to factor VIII (LNC recall to FVIII),HLA-DR2 transgenic mice,substantial suppression of the immune response to factor VIII
same,response of draining lymph node cells to peptide,LNC from FVIII-DR2+ mice,responded well
same,presentation by live and fixed APC (function as apitope),[3],presented by both live and fixed mgar cells
"SLYISQFIIMYSLDG (listed as Homo sapiens) [FVIII 15mer peptide, first AA 2114]",number of hybridomas responding to peptide,[2],1
"PPIIARYIRLHPTHY (listed as Homo sapiens) [FVIII 15mer peptide, first AA 2161]",character of hybridoma response to peptide,[1]; 27 hybridomas screened,weaker and less specific
same,number of hybridomas responding to peptide,[1],3
same,number of hybridomas responding to peptide,[2],1
"EDNIMVTFRNQASR [EDNIMV, EDNIMVTFRNQASR]",solubility,Solubility of peptide,sufficiently soluble to allow intranasal peptide delivery
same,solubility relative to parent peptide,Solubility of peptide; compared with DNIMV,more soluble than DNIMV
"DNIMVTFRNQASRPY [DNIMV, DNIMVTFRNQASRPY]",solubility,Solubility of peptide,"partly, but not completely soluble"
"GTLMVFFGNVDSSGI (listed as Homo sapiens) [FVIII 15mer peptide, first AA 2140]",response of draining lymph node cells to peptide,LNC from FVIII-DR2+ mice,weak response
"DTLLIIFKNQASRPY (listed as Homo sapiens) [FVIII 15mer peptide, first AA 478]",number of hybridomas responding to peptide,[2],1
